Measurements published in US10239878B2, “Macrocyclic ligands with pendant chelating moieties and complexes thereof” (LUMIPHORE, INC., priority 2016, dated 2019).
Counter-ions that a name gives are not always drawn. Marks after values point to notes of the source that are not given here.

Key:
[1] = Photophysical characterization of Eu complexes (UV-vis absorption, quantum yield, lifetime); type: physicochemical; settings: for ε260/ε at λmax / ε280/ε at λmax / λmax / Φtotal at 365 nm excitation: TBS buffer; for ε260/ε at λmax / ε280/ε at λmax / λmax: pH 7.6; for Φtotal at 365 nm excitation: quinine sulfate as quantum yield standard; for Lifetime: luminescence, HPLC purified Eu complexes
Protocol: The europium complexes of ligands 16, 29, 33, 40, and 43 were prepared by separately dissolving each ligand (2 mg) into methanol (200 μL). Excess europium chloride hexahydrate (˜5 equivalents) was dissolved in methanol (200 μL) and the full volume was added to each of the ligand solutions. The solvent was removed, and the residue was dissolved into DMF (50 μL). The europium complexes were then purified by semi-prep HPLC on an Agilent 1260 Infinity instrument using an Eclipse XDB-C18 column (5 μm, 9.4×250 mm). The mobile phase was 10 to 30% acetonitrile in water containing 0.1% trifluoroacetic acid. The volatiles were removed from the HPLC eluents under vacuum, and the residues were separately dissolved into methanol (500 μL) to give methanolic stock solutions of each europium complex with greater than 98% purity. A few drops of these methanolic solutions were evaporated to dryness, and then the residue was dissolved into TBS buffer at a concentration of ca. 3 μM to make aqueous stock solutions (20 mL) with an absorbance of 0.05 (1 cm path length) at 365 nm. Five dilutions (1/6, 2/6, 3/6, 4/6, and 5/6) were made from these aqueous stock solutions to yield six samples with evenly spaced concentrations (3 mL volume each). Quinine sulfate dissolved in 0.05 M sulfuric acid was similarly diluted to a final absorbance of 0.05 at 365 nm, and this solution was similarly (1/6, 2/6, 3/6, 4/6, and 5/6) diluted to afford six quinine sulfate reference samples of evenly spaced concentration. Quinine sulfate in 0.05 M sulfuric acid was used as the quantum yield standard (Φ=0.508). By measuring the absorbance and luminescence of these dilute solutions, the quantum yields of the new Eu complexes were determined. A 5 cm path-length quartz cell was used to measure the absorbance of these dilute solutions in order to improve the UV-vis signal-to-noise. Steady state photoluminescence measurements were collected in a 1 cm fluorescence cuvette at 365 nm excitation wavelength, 1 nm resolution, 10 nm excitation slit width, 1 nm emission slit width, and 0.2 sec integration time on an instrument that has been described elsewhere (D'Aléo, A.; Moore, E. G.; Szigethy, G.; Xu, J.; Raymond, K. N. Inorg. Chem. 2009, 48, 9316.). Absorption spectra were measured at 1 nm resolution, and the absorbance of each sample was taken as the average absorbance measured from 360-370 nm to reflect the 10 nm excitation slit width used for luminescence measurements. The data derived from these experiments, and from the titration experiments in example 11 are tabulated below.

[2] = Europium titration experiments for determining extinction coefficients; type: physicochemical; settings: for extinction coefficient: UV-vis titration with europium chloride, TBS buffer pH 7.6, at lambda max; for lambda max: UV-vis titration, TBS buffer; for ε at λmax: by europium titration, TBS buffer pH 7.6; for ε at λmax (starred values): assumed equal to those measured by titration for 16 · Eu or 43 · Eu
Protocol: In order to determine accurate extinction coefficients for 16 and 16⋅Eu, titration experiments using europium chloride as the titrant were performed. Europium chloride hexahydrate (13.22 mg, 0.03608 mmol) was dissolved into 5 mM citrate buffer (pH=4) using a 100 mL volumetric flask to give a 0.3608 mM europium chloride solution, which was then titrated into a 0.5 mL solution of 16 in TBS buffer (Tris-buffered saline, 50 mM Tris, 150 mM NaCl, pH=7.6) using 5 μL aliquots. The UV-vis spectra were adjusted for the increase in solvent volume due to each injection. The results of the UV-vis titration are plotted in FIG. 3.
The volume of europium chloride corresponds to 16.70 nmol of europium, meaning the starting concentration of ligand 16 was 33.40 μM. […] These absorbance and concentration values yield extinction coefficients of 13,600 M^−1 cm^−1 and 14,300 M^−1 cm^−1 for the ligand 16 and the complex 16⋅Eu respectively.
In order to determine accurate extinction coefficients for 43 and 43⋅Eu, titration experiments using europium chloride as the titrant were performed. Europium chloride hexahydrate (47.58 mg, 0.1299 mmol) was dissolved into 50 mM citrate buffer (pH=4) using a 10 mL volumetric flask to give a 12.99 mM europium chloride solution, which was then transferred to a 100 mL volumetric flask and diluted 1:10 with water. The resulting 1.299 mM europium chloride solution (in 5 mM citrate buffer) was then titrated into a 1 mL solution of 43 in TBS buffer using 5 μL aliquots. The UV-vis spectra were adjusted for the increase in solvent volume due to each injection. The results of the UV-vis titration are plotted in FIG. 4.
The volume of europium chloride corresponds to 47.46 nmol of europium, meaning the starting concentration of ligand 43 was 47.46 μM. […] These absorbance and concentration values yield extinction coefficients of 13,000 M^−1 cm^−1 and 12,800 M^−1 cm^−1 for the ligand and complex respectively.
Titration of ligand 43 was also performed by luminescence (FIG. 5), monitoring the europium signal at 612 nm upon photoexcitation of the solution at 340 nm. The ligand solution used for the UV-vis titration of 43 mentioned above was first diluted 1:10 in TBS buffer. Similarly, the 1.299 mM stock europium solution was separately diluted 1:10 with water. […] The 32.99 μL equivalence point gives extinction coefficients of 14,400 M^−1 cm^−1 at 383 nm and 14,200 M^−1 cm^−1 at 357 nm for 43 and 43⋅Eu respectively. Averaging the values from both UV-vis and luminescence titration experiments of 43 yields extinction coefficients of 13,700 M^−1 cm^−1 at 383 nm and 13,500 M^−1 cm^−1 at 357 nm for 43 and 43⋅Eu respectively.

[3] = 250 mM DTPA competition experiments (kinetic stability of Eu complexes); type: physicochemical
Text: From these experiments, it is clear that 43⋅Eu is remarkably stable to a wide range of competitive metal ions and chelators. The competitor concentrations mentioned above are a good way to assess the kinetic stability of the complex in various assay conditions. DTPA is an exceptionally good ligand for lanthanide ions, and thus it is not typically used in practical assays. However, DTPA competition offers an excellent way to benchmark the kinetic stability of the complexes reported here. […] In order to compare the kinetic stability of the complexes reported here, a 750 mM stock solution (25 mL) of DTPA was prepared by dissolving DTPA (7.375 g, 18.75 mmol) into water (20 mL) containing potassium hydroxide (5.26 g, 93.75 mmol). The pH of the DTPA solution was adjusted to pH=7.6 by addition of concentrated hydrochloric acid, and then the solution was diluted to a final volume of 25 mL to give a 750 mM DTPA stock solution at pH=7.6. HPLC purified europium complexes of 16, 29, 33, 40, and 43 were separately diluted to 11 μM in TBS buffer, pH=7.6. For each DTPA competition experiment, 1 mL of the 750 mM DTPA solution was added to 2 mL of the 11 μM europium complex solution. The luminescence at 612 nm (365 nm excitation) was monitored for these five separate solutions containing 250 mM DTPA and 7.1 μM of each europium complex as a function of time.

[4] = Thorium(IV) complexes; ligand denticity bi- to deca-dentate; cited from earlier work
[5] = in 0.05 M sulfuric acid; cited from earlier work

Row | Structure (SMILES) | ε260/ε at λmax [1] | ε280/ε at λmax [1] | λmax [1] [nm] | Φtotal at 365 nm excitation [1] [%] | Lifetime [1] [μs] | Log K1 [4] | also measured
1 | O=C1NCCCN(C(=O)c2cccc(=O)n2[O-])CCCCN(C(=O)c2cccc(=O)n2[O-])CCCNC(=O)c2ccc(n([O-])c2=O)C(=O)NCCNC(=O)c2ccc1c(=O)n2[O-].[Eu+3] [16⋅Eu] | 1.40 | 1.12 | 361 | 30.9 | 716 |  | extinction coefficient [2]: 14,300 M^−1 cm^−1; lambda max [2]: 361 nm; ε at λmax [2]: 14,300 M^−1cm^−1
2 | NCCCC[C@H]1CNC(=O)c2ccc(c(=O)n2[O-])C(=O)NCCCN(C(=O)c2cccc(=O)n2[O-])CCCCN(C(=O)c2cccc(=O)n2[O-])CCCNC(=O)c2ccc(n([O-])c2=O)C(=O)N1.[Eu+3] [29⋅Eu] | 1.42 | 1.18 | 363 | 29.8 | 716 |  | kinetic stability relative to 43⋅Eu to challenge by DTPA [3]: at least an order of magnitude; kinetic stability relative to m-tetrahydrofurandiamine-based macrocycles (40⋅Eu and 43⋅Eu) [3]: ~5 ×; ε at λmax (starred values) [2]: 14,300* M^−1cm^−1
3 | NCCOCCNC(=O)C1CCCN(C(=O)c2cccc(=O)n2[O-])CCCNC(=O)c2ccc(n([O-])c2=O)C(=O)NCCNC(=O)c2ccc(c(=O)n2[O-])C(=O)NCCCN1C(=O)c1cccc(=O)n1[O-].[Eu+3] (stereo not drawn) [33⋅Eu] | 1.40 | 1.14 | 363 | 30.0 | 723 |  | kinetic stability relative to m-tetrahydrofurandiamine-based macrocycles (40⋅Eu and 43⋅Eu) [3]: ~5 ×; reduction in kinetic stability upon introduction of the spermine-based sidearm ([3]; 33⋅Eu versus 16⋅Eu, 43⋅Eu versus 40⋅Eu): two fold; ε at λmax (starred values) [2]: 14,300* M^−1cm^−1
4 | O=C1NCCCN(C(=O)c2cccc(=O)n2[O-])CCCCN(C(=O)c2cccc(=O)n2[O-])CCCNC(=O)c2ccc(n([O-])c2=O)C(=O)N[C@@H]2COC[C@@H]2NC(=O)c2ccc1c(=O)n2[O-].[Eu+3] [40⋅Eu] | 1.51 | 1.19 | 357 | 28.2 | 729 |  | ε at λmax (starred values) [2]: 13,500* M^−1cm^−1
5 | CC(=O)CC(C)=O [Acac] |  |  |  |  |  | 7.85 | 
6 | O=C1NCCCN(C(=O)c2cccc(=O)n2O)CCCCN(C(=O)c2cccc(=O)n2O)CCCNC(=O)c2ccc(n(O)c2=O)C(=O)NCCNC(=O)c2ccc1c(=O)n2O [Compound 16] | 1.98 | 1.27 | 382 |  |  |  | extinction coefficient [2]: 13,600 M^−1 cm^−1; lambda max [2]: 382 nm; ε at λmax [2]: 13,600 M^−1cm^−1
7 | O=C(O)CN(CCN(CC(=O)O)CC(=O)O)CC(=O)O [EDTA] |  |  |  |  |  | 25.3 | 
8 | O=C(O)CN(CCO)CCN(CC(=O)O)CC(=O)O [HEDTA] |  |  |  |  |  | 18.5 | 
9 | O=C(O)CN(CC(=O)O)CC(=O)O [NTA] |  |  |  |  |  | 16.9 | 
10 | C=C[C@H]1C[N@@]2CC[C@H]1C[C@H]2[C@H](O)c1ccnc2ccc(OC)cc12 [Quinine sulfate] |  |  |  |  |  |  | quantum yield standard Φ [5]: 0.508
11 | O=C(O)CN(CCN(CCN(CC(=O)O)CC(=O)O)CC(=O)O)CCN(CC(=O)O)CC(=O)O [TTHA] |  |  |  |  |  | 31.9 | 
